In US7786141B2 (Vertex Pharmaceuticals Incorporated, priority 2004, dated 2010):

Assays:
M4 muscarinic receptor = biological target: T1, M4 muscarinic receptor (Homo sapiens, UniProt P08173); experiment: Functional mobilization of intracellular calcium (FLIPR) in M4-CHO cells; type: cell-based; settings: Table 4; for Emax: 100% efficacy is the maximum response obtained with the Carbachol control; for M4 Activity: modulating M4 receptor
T1 construct: expressed in transfected cells; host or cells: CHO (M4-CHO)
T1 sequence (P08173 1-479): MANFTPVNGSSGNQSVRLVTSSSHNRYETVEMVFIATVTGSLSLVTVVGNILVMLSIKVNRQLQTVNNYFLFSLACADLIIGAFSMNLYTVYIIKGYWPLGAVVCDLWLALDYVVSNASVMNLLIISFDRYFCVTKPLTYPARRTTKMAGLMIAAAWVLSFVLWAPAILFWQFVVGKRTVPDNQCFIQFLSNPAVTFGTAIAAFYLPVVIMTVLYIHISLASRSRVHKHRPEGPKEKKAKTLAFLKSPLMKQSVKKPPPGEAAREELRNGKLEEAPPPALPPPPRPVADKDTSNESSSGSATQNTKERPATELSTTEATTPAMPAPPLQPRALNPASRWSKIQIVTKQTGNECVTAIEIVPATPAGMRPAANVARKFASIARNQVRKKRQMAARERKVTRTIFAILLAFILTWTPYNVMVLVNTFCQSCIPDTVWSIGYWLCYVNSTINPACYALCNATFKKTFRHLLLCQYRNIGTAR
Outline: (§1)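 Two modes: direct compound addition for agonism, or 15 min compound pre-incubation (or co-application) before carbachol at EC80 for inhibition. Calcium signal from Fluo-3 AM or Calcium 3 dye in CHO cells, 1 mM probenecid, pH 7.4, read 60 sec at 488/540 nm; DMSO 0.5% final.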

M1 muscarinic receptor = biological target: T2, M1 muscarinic receptor (Homo sapiens, UniProt P11229); experiment: Functional mobilization of intracellular calcium (FLIPR) in M1-CHO cells; type: cell-based; settings: Table 4; for Emax: 100% efficacy is the maximum response obtained with the Carbachol control; for M1 Activity: modulating M1 receptor
T2 construct: expressed in transfected cells; host or cells: CHO (M1-CHO)
T2 sequence (P11229 1-460): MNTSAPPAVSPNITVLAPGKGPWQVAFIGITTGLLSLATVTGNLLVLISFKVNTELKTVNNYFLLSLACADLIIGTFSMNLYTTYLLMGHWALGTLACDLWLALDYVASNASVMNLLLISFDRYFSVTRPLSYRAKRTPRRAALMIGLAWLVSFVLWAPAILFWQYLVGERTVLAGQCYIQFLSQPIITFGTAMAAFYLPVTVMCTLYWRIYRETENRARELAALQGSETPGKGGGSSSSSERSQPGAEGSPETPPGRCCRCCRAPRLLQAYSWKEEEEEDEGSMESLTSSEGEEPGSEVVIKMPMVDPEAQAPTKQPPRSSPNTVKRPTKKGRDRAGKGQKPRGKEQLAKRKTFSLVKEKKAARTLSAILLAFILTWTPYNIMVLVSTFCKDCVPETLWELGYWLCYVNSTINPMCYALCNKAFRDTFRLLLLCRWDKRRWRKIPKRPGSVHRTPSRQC
Outline: as §1

Compound | Emax (M4 muscarinic receptor) [%] | M4 Activity (M4 muscarinic receptor) | Emax (M1 muscarinic receptor) [%] | M1 Activity (M1 muscarinic receptor)
CCOC(=O)N1CCC(N2CCC3(CC2)CN(c2nc(C)ns2)c2ccccc23)CC1 [compound 700] | > 100 | xxx (activity was measured to be less than 2.0 μM) | > 100 | xxx (activity was measured to be less than 2.0 μM)
CN(C)C(=O)N1CC2(CCN(C3CCN(C(=O)C4CC4)CC3)CC2)c2cc(F)ccc21 [compound 701] | 25 to 100 | xxx (activity was measured to be less than 2.0 μM) | 25 to 100 | xxx (activity was measured to be less than 2.0 μM)
CCO/N=C1\CC2(CCN(CC3CCCCC3)CC2)c2cc(Cl)ccc21 [compound 702] | 25 to 100 | x (activity was measured to be greater than 5.0 μM) | 25 to 100 | x (activity was measured to be greater than 5.0 μM)
CC(=O)N[C@H]1CC2(CCN(C3CCN(C)CC3)CC2)c2ccccc21 [compound 703] | < 25 | x (activity was measured to be greater than 5.0 μM) | < 25 | x (activity was measured to be greater than 5.0 μM)
CC(C)OC(=O)N1CCCC(N2CCC3(CC2)CN(C(=O)N(C)C)c2ccc(F)cc23)CC1 (stereo not shown) [compound 704] | 25 to 100 | xxx (activity was measured to be less than 2.0 μM) | 25 to 100 | xxx (activity was measured to be less than 2.0 μM)
Fc1ccc2c(c1)C1(CCN(C3CC4CCC3O4)CC1)CN2 (stereo not shown) [compound 705] | < 25 | x (activity was measured to be greater than 5.0 μM) | < 25 | x (activity was measured to be greater than 5.0 μM)
CCCOC(=O)N1CC[C@@H](CN2CCC3(CC2)CN(C(=O)N(C)C)c2ccc(F)cc23)C1 [compound 706] | 25 to 100 | xxx (activity was measured to be less than 2.0 μM) | 25 to 100 | xxx (activity was measured to be less than 2.0 μM)
CC(=O)N[C@H]1CC2(CCN(C3CCN(c4cccc(F)n4)CC3)CC2)c2ccccc21 [compound 708] | 25 to 100 | xxx (activity was measured to be less than 2.0 μM) | 25 to 100 | xxx (activity was measured to be less than 2.0 μM)
CC(=O)NC1CCC2(CCN(CCC3CCOCC3)CC2)c2ccccc21 (stereo not shown) [compound 709] | < 25 | xxx (activity was measured to be less than 2.0 μM) | 25 to 100 | xxx (activity was measured to be less than 2.0 μM)
CC(=O)N1CC2(CCN(C3CCN(c4nn[nH]n4)CC3)CC2)c2ccccc21 [compound 710] | 25 to 100 | x (activity was measured to be greater than 5.0 μM) | 25 to 100 | x (activity was measured to be greater than 5.0 μM)
CN(C)C(=O)N1CC2(CCN(C3CCN(c4ccccc4F)CC3)CC2)c2cc(F)ccc21 [compound 711] | < 25 | x (activity was measured to be greater than 5.0 μM) | 25 to 100 | xx (activity was measured to be between 2.0 μM and 5.0 μM)
CCOC(=O)N1CCC(N2CCC3(CC2)CN(C(=O)NCc2ccccc2)c2ccccc23)CC1 [compound 712] | 25 to 100 | xxx (activity was measured to be less than 2.0 μM) | 25 to 100 | xxx (activity was measured to be less than 2.0 μM)
CCOC(=O)N1CCC(N2CCC3(CC2)CN(C(=O)CCOC)c2ccc(F)cc23)CC1 [compound 714] | 25 to 100 | xxx (activity was measured to be less than 2.0 μM) | > 100 | xxx (activity was measured to be less than 2.0 μM)
O=C1CC2(CCN(C3CCCCC3)CC2)c2cc(Cl)ccc21 [compound 715] | 25 to 100 | xxx (activity was measured to be less than 2.0 μM) | 25 to 100 | xxx (activity was measured to be less than 2.0 μM)
CC(=O)NC1CCC2(CCN(C3CCCCC3)CC2)c2ccccc21 (stereo not shown) [compound 716] | 25 to 100 | xxx (activity was measured to be less than 2.0 μM) | 25 to 100 | xxx (activity was measured to be less than 2.0 μM)
CCOC(=O)N1CCC(N2CCC3(CC2)CN(c2ccccc2OC)c2ccc(F)cc23)CC1 [compound 717] | 25 to 100 | xxx (activity was measured to be less than 2.0 μM) | 25 to 100 | xxx (activity was measured to be less than 2.0 μM)
CN(C)C(=O)N1CC2(CCN(C3CCN(C(=O)c4ccccn4)CC3)CC2)c2cc(F)ccc21 [compound 718] | < 25 | x (activity was measured to be greater than 5.0 μM) | < 25 | x (activity was measured to be greater than 5.0 μM)
CCOC(=O)N1CCC(N2CCC3(CC2)CN(C(C)=O)c2ccc(S(C)(=O)=O)cc23)CC1 [compound 719] | < 25 | x (activity was measured to be greater than 5.0 μM) | 25 to 100 | xxx (activity was measured to be less than 2.0 μM)
CN(C)C(=O)N1CC2(CCN(C3CCN(c4ccccn4)CC3)CC2)c2cc(F)ccc21 [compound 720] | 25 to 100 | xxx (activity was measured to be less than 2.0 μM) | 25 to 100 | xx (activity was measured to be between 2.0 μM and 5.0 μM)
CCCCNC(=O)N1CC2(CCN(C3CCN(C(=O)OCC)CC3)CC2)c2ccccc21 [compound 721] | 25 to 100 | xxx (activity was measured to be less than 2.0 μM) | 25 to 100 | xxx (activity was measured to be less than 2.0 μM)
CCOC(=O)N1CCC(CN2CCC3(CC2)CN(C(C)=O)c2c(F)cc(F)cc23)CC1 [compound 722] | 25 to 100 | xxx (activity was measured to be less than 2.0 μM) | 25 to 100 | xxx (activity was measured to be less than 2.0 μM)
CS(=O)(=O)N[C@H]1CCC2(CCN(C3CCCCCC3)CC2)c2ccccc21 [compound 723] | 25 to 100 | xxx (activity was measured to be less than 2.0 μM) | 25 to 100 | xxx (activity was measured to be less than 2.0 μM)
CC(=O)N1CC2(CCN(C3CCN(C(=O)OCC4CC4)CC3)CC2)c2ccccc21 [compound 724] | < 25 | x (activity was measured to be greater than 5.0 μM) | 25 to 100 | xx (activity was measured to be between 2.0 μM and 5.0 μM)
O=C(N[C@H]1CC2(CCN(CCC3CC4CC[C@@H]3C4)CC2)c2ccccc21)N1CCCC1 (stereo partly shown) [compound 726] | < 25 | x (activity was measured to be greater than 5.0 μM) | < 25 | x (activity was measured to be greater than 5.0 μM)
CN(C)C(=O)N1CC2(CCN(C3CCN(C(=O)C4(C(F)(F)F)CC4)CC3)CC2)c2cc(F)ccc21 [compound 727] | 25 to 100 | xxx (activity was measured to be less than 2.0 μM) | 25 to 100 | x (activity was measured to be greater than 5.0 μM)
CCOC(=O)N1CCC(N2CCC3(CC2)CN(C(C)=O)c2c(-c4cccnc4)cccc23)CC1 [compound 728] | < 25 | x (activity was measured to be greater than 5.0 μM) | 25 to 100 | xx (activity was measured to be between 2.0 μM and 5.0 μM)
CN(C)C(=O)N1CC2(CCN(C3CCN(C(=O)CC#N)CC3)CC2)c2cc(F)ccc21 [compound 729] | < 25 | x (activity was measured to be greater than 5.0 μM) | < 25 | x (activity was measured to be greater than 5.0 μM)
CCOC(=O)N1CCC(N2CCC3(CC2)CN(C(=O)[C@H](O)CC)c2ccc(F)cc23)CC1 [compound 730] | 25 to 100 | xxx (activity was measured to be less than 2.0 μM) | 25 to 100 | xxx (activity was measured to be less than 2.0 μM)
